Assay results from patent US12715851B2, “4′-substituted analogues of fisetin and their use in the treatment of cancer” (Stellenbosch University, priority 2020, dated 2026).
Entries after “also recorded” stand apart in the source; their conditions may differ.

Columns and labels:
A549 cells = assay: Trypan blue cell exclusion assay, cell proliferation and death; format: cell-based; settings: Homo sapiens, A549, 48 h, read-out: IC50 concentration
Procedure: (§1) To evaluate the effect of Fisetin analogues 3a, 3c and 3e on cell proliferation and death of human lung cancer cells, trypan blue cell exclusion assays were performed. A549 and H1299 cancer cells were treated with different concentrations of three selected Fisetin analogues for 48 h. The Fisetin analogues decreased the viability of cells and caused cell death in both the cell lines in a concentration dependent fashion. A549 and H1299 cells were treated with 5, 10 and 20 μM of Fisetin analogues for 48 h. All three analogues decreased cell proliferation and induced cell death.

H1299 lung cancer cells = assay: as above; format: cell-based; settings: Homo sapiens, NCI-H1299, H1299, 48 h, read-out: IC50 concentration
Procedure: as §1

A549 = assay: Cell cycle distribution, propidium iodide flow cytometry; format: cell-based, human; settings: 48 h
Procedure: To examine the effect of Fisetin analogues on cell cycle regulation, cells were treated with different concentrations of Fisetin analogues (5, 10 & 20 μM) for 48 h, then stained with propidium iodide and subjected to flow cytometry. All three of the tested Fisetin analogues induced G2/M phase cell cycle arrest in A549 (FIGS. 5A-5C) and H1299 human lung cancer cells (FIGS. 5D-5F).

[1] = Acute toxicity, fed orally for two weeks; format: in vivo; settings: Fisetin 50 mg/kg, 3c 25 and 50 mg/kg body weight
Procedure: Fisetin analogue 3c was used to assess the potential toxicity of these analogues in a pre-clinical model. To test the acute toxicity, Fisetin (50 mg/kg body weight), analogue 3c (25 mg/kg and 50 mg/kg body weight), and vehicle control (5% DMSO, 45% PEG-300 and 50% saline) was fed orally for two weeks. Abnormal clinical signs such as decreased motor activity, sensory reflection, body weight, food intake, and water intake were monitored during the treatment period. An increase in body weight was observed among all groups throughout the treatment period (FIG. 7A). […] This variation could be due to consistent frequency of dosage.

SOD = assay: Hepatotoxicity: specific activity of SOD; format: in vivo, swiss albino mice; settings: liver of treated mice
Procedure: (§2) Hepatotoxicity is considered to be one of the major challenges for drug development schemes. The liver is the primary organ for the metabolism or biotransformation of a given drug. To assess the hepatotoxicity of these compounds, the effects of Fisetin and analogue 3c on various hepatic enzymes was assessed.
(§3) A lipid peroxidation assay was performed on microsomal liver fraction and determined in terms of TBARS formation. […] The modulatory effects of Fisetin and analogue 3c were determined on the specific activities of cytochrome b5 reductase (Cytb5R) and cytochrome P450 reductase (CytP450R), phase I enzyme of xenobiotic metabolism. Fisetin and analogue 3c caused reduction in the specific activity of cytochrome b5 reductase. Fisetin decreased Cytb5R specific activity by 66% whereas analogue 3c (50 mg/kg) caused a 36% reduction in specific activity (FIG. 7F). An increase in specific activity of CytP450R by Fisetin and analogue 3c was observed. Fisetin and analogue 3c (50 mg/kg) increased the specific activity by 15% and 13%, respectively (FIG. 7G). Next, the specific activities of phase II enzymes, glutathione S-transferase (GST) and reduced glutathione (GSH) were measured. […] Fisetin and analogue 3c (50 mg/kg) caused a decrease in specific activity of GSH by 34% and 7%, respectively (FIG. 7I). […] These analogues are therefore likely to be effective and safe phytochemicals.

[2] = test system: cytochrome b5 reductase (Cytb5R); assay: Hepatotoxicity: specific activity of cytochrome b5 reductase; format: in vivo, swiss albino mice; settings: 50 mg/kg orally, two weeks
Procedure: as §2, §3

[3] = test system: reduced glutathione (GSH); assay: Hepatotoxicity: reduced glutathione; format: in vivo, swiss albino mice; settings: 50 mg/kg orally, two weeks
Procedure: as §2, §3

With `O=c1c(O)c(-c2ccc(Br)cc2)oc2cc(O)ccc12` [analogue 3c, 4′-Bromo-3,7-dihydroxyflavone] the IC50 (A549 cells) was 12.1 µM, the IC50 (H1299 lung cancer cells) was 5.4 µM and the G2/M phase arrest (A549; 5 μM) was “induced cell cycle arrest”. The G2/M phase arrest (A549; 10 & 20 μM) was “induced G2/M phase arrest in both the cell lines significantly”, the “toxicity in mice, in words” value [1] was “well tolerated in animal models; also recorded: does not show toxicity; also recorded: did not cause toxicity” and the “specific activity of SOD” value (SOD) was “moderately induced”. For the same compound, the “reduction in specific activity of cytochrome b5 reductase” value [2] was 36% and the “decrease in specific activity of GSH” value [3] was 7%.
